Measurements as given in US20230131192A1, “1H-PYRAZOLO[4,3-d]PYRIMIDINE COMPOUNDS AS TOLL-LIKE RECEPTOR 7 (TLR7) AGONISTS” (BRISTOL-MYERS SQUIBB COMPANY, priority 2020, published 2023).

Tests used:
CD69 = assay: Induction of CD69 in human whole blood; type: cell-based; settings: 17 hrs, CD69 surface staining, 100% set to 1 uM of resiquimod, average where assay was performed multiple times, read-out: hWB CD69 EC50
Procedure: The induction of Type I interferon (IFN) MX-1 genes and the B-cell activation marker CD69 are downstream events that occur upon activation of the TLR7 pathway. The following is a human whole blood assay that measures their induction in response to a TLR7 agonist.
Heparinized human whole blood was harvested from human subjects and treated with test TLR7 agonist compounds at 1 mM. The blood was diluted with RPMI 1640 media and Echo was used to predot 10 nL per well giving a final concentration of 1 uM (10 nL in 10 uL of blood). After mixing on a shaker for 30 sec, the plates were covered and placed in a 37° C. chamber for o/n=17 hrs. Fixing/lysis buffer was prepared (5×→1× in H2O, warm at 37° C.; Cat # BD 558049) and kept the perm buffer (on ice) for later use.
For surface markers staining (CD69): prepared surface Abs: 0.045 ul hCD14-FITC (ThermoFisher Cat # MHCD1401)+0.6 ul hCD19-ef450 (ThermoFisher Cat #48-0198-42)+1.5 ul hCD69-PE (cat # BD555531)+0.855 ul FACS buffer. Added 3 ul/well, spin1000 rpm for 1 min and mixed on shaker for 30 sec, put on ice for 30 mins. Stop stimulation after 30 minutes with 70 uL of prewarmed 1× fix/lysis buffer and use Feliex mate to resuspend (15 times, change tips for each plate) and incubate at 37 C for 10 minutes.
Centrifuge at 2000 rpm for 5 minutes aspirate with HCS plate washer, mix on shaker for 30 sec and then wash with 70 uL in dPBS and pelleted 2×s (2000 rpm for 5 min) and 50 ul wash in FACS buffer pelleted 1×s(2000 rpm for 5 min). Mix on shaker for 30 sec. For Intracellular markers staining (MX-1): Add 50 ul of BD Perm buffer III and mix on shaker for 30 sec. Incubate on ice for 30 minutes (in the dark). Wash with 50 uL of FACS buffer 2× (spin @2300 rpm×5 min after perm) followed by mixing on shaker for 30 sec. Resuspended in 20 ul of FACS buffer containing MX1 antibody ( )(4812)-Alexa 647: Novus Biologicals #NBP2-43704AF647) 20 ul FACS bf+0.8 ul hlgG+0.04 ul MX-1. Spin 1000 rpm for 1 min, mix on shaker for 30se and the samples were incubated at RT in the dark for 45 minutes followed by washing 2×FACS buffer (spin @2300 rpm×5 min after perm). Resuspend 20 ul (35 uL total per well) of FACS buffer and cover with foil and place in 4° C. to read the following day. Plates were read on iQuePlus. The results were loaded into toolset and […] curves are generated in curve master. The y-axis 100% is set to 1 uM of resiquimod.

human TLR7 = biological target: T1, human TLR7 (Homo sapiens, UniProt Q9NYK1); assay: Human TLR7 agonist (reporter) activity assay, HEK-Blue TLR7 cells, SEAP reporter; type: cell-based; settings: 18 h treatment, average where assay was performed multiple times, read-out: hTLR7 Agonism EC50
T1 construct: host or cells: HEK-Blue TLR7 cells (engineered human embryonic kidney cells)
T1 sequence (Q9NYK1 27-1049): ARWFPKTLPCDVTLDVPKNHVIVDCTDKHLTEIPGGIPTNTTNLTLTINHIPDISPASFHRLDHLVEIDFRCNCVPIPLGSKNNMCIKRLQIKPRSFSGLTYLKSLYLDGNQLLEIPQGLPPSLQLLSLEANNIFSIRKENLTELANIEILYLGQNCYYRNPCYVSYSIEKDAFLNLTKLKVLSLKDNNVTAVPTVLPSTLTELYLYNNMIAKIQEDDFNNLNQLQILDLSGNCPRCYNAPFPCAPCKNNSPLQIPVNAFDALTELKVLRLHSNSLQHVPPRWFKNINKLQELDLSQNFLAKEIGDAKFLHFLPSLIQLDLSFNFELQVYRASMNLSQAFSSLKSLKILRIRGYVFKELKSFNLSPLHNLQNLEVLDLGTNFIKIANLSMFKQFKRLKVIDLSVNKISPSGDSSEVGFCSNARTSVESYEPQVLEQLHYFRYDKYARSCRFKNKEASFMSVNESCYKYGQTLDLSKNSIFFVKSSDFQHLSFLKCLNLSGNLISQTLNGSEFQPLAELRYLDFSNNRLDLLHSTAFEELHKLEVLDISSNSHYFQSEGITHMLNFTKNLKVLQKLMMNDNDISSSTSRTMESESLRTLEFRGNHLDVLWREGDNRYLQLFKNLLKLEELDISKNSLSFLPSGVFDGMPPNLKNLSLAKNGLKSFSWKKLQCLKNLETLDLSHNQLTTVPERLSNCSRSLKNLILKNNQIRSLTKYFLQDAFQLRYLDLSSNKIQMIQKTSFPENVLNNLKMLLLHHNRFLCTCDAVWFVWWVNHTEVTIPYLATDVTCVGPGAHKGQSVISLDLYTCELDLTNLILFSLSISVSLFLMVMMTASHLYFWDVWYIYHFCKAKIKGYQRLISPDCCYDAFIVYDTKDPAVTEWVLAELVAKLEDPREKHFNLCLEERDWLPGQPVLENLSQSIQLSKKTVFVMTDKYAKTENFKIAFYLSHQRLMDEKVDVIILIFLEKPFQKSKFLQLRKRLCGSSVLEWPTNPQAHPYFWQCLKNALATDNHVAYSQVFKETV
Procedure: This procedure describes a method for assaying human TLR7 (hTLR7) agonist activity of the compounds disclosed in this specification.
HEK-Blue™ TLR7 cells were added to each well of a 384-well tissue-culture plate (15,000 cells per well) and incubated 16-18 h at 37° C., 5% CO2. Compounds (100 nl) were dispensed into wells containing the HEK-Blue™ TLR cells and the treated cells were incubated at 37° C., 5% CO2. After 18 h treatment ten microliters of freshly-prepared Quanti-Blue™ reagent (Invivogen) was added to each well, incubated for 30 min (37° C., 5% CO2) and SEAP levels measured using an Envision plate reader (OD=620 nm). The half maximal effective concentration values (EC50; compound concentration which induced a response halfway between the assay baseline and maximum) were calculated.

Row | SMILES | EC50 (CD69) [nM] | EC50 (human TLR7) [nM]
1 | COc1cc(CO)ccc1Cn1ncc2nc(N)nc(NCc3cc(C)on3)c21 [Compound 101, {4-[(5-amino-7-{[(5-methyl-1,2-oxazol-3-yl)methyl]amino}-1H-pyrazolo[4,3-d]pyrimidin-1-yl)methyl]-3-methoxyphenyl}methanol] | 472 | 354
2 | COc1cc(CN2CCN(C)CC2)ccc1Cn1ncc2nc(N)nc(NCc3cc(C)on3)c21 [Compound 104, 1-({2-methoxy-4-[(4-methylpiperazin-1-yl)methyl]phenyl}methyl)-N7-[(5-methyl-1,2-oxazol-3-yl)methyl]-1H-pyrazolo[4,3-d]pyrimidine-5,7-diamine] | 3.6 | 12.3
3 | COc1cc(CN2CCN(CCO)CC2)ccc1Cn1ncc2nc(N)nc(NCc3cc(C)on3)c21 [Compound 105, 2-[4-({4-[(5-amino-7-{[(5-methyl-1,2-oxazol-3-yl)methyl]amino}-1H-pyrazolo[4,3-d]pyrimidin-1-yl)methyl]-3-methoxyphenyl}methyl)piperazin-1-yl]ethan-1-ol] |  | 23.4
4 | COc1cc(CN2CC(OC)C2)ccc1Cn1ncc2nc(N)nc(NCc3cc(C)on3)c21 [Compound 106, 1-({2-methoxy-4-[(3-methoxyazetidin-1-yl)methyl]phenyl}methyl)-N7-[(5-methyl-1,2-oxazol-3-yl)methyl]-1H-pyrazolo[4,3-d]pyrimidine-5,7-diamine] | 9.5 | 57
5 | COc1cc(CN2CCN(S(C)(=O)=O)CC2)ccc1Cn1ncc2nc(N)nc(NCc3cc(C)on3)c21 [Compound 110, 1-({4-[(4-methanesulfonylpiperazin-1-yl)methyl]-2-methoxyphenyl}methyl)-N7-[(5-methyl-1,2-oxazol-3-yl)methyl]-1H-pyrazolo[4,3-d]pyrimidine-5,7-diamine] | 438 | 485
6 | COc1cc(CN2CCC(S(C)(=O)=O)CC2)ccc1Cn1ncc2nc(N)nc(NCc3cc(C)on3)c21 [Compound 111] | 58.8 | 176
7 | COc1cc(CO)ccc1Cn1ncc2nc(N)nc(NCc3noc(C)n3)c21 [Compound 116, {4-[(5-amino-7-{[(5-methyl-1,2,4-oxadiazol-3-yl)methyl]amino}-1H-pyrazolo[4,3-d]pyrimidin-1-yl)methyl]-3-methoxyphenyl}methanol] |  | 729
8 | COc1cc(CN2CCN(CCO)CC2)ccc1Cn1nc(C)c2nc(N)nc(NCc3noc(C)n3)c21 [Compound 132, 2-[4-({4-[(5-amino-3-methyl-7-{[(5-methyl-1,2,4-oxadiazol-3-yl)methyl]amino}-1H-pyrazolo[4,3-d]pyrimidin-1-yl)methyl]-3-methoxyphenyl}methyl)piperazin-1-yl]ethan-1-ol] |  | 424
9 | COc1cc(CN2CCN(C)CC2)ccc1Cn1nc(C)c2nc(N)nc(NCc3noc(C)n3)c21 [Compound 134, 1-({2-methoxy-4-[(4-methylpiperazin-1-yl)methyl]phenyl}methyl)-3-methyl-N7-[(5-methyl-1,2,4-oxadiazol-3-yl)methyl]-1H-pyrazolo[4,3-d]pyrimidine-5,7-diamine] |  | 159

More lines, now with the values ahead:

Row | EC50 (CD69) [nM] | EC50 (human TLR7) [nM] | SMILES
10 | 25.8 | 74.6 | COc1cc(CNC2CCC2)ccc1Cn1ncc2nc(N)nc(NCc3cc(C)on3)c21 [Compound 102, 1-({4-[(cyclobutylamino)methyl]-2-methoxyphenyl}methyl)-N7-[(5-methyl-1,2-oxazol-3-yl)methyl]-1H-pyrazolo[4,3-d]pyrimidine-5,7-diamine]
11 | 5.4 | 57.6 | COc1cc(CNC2CCOCC2)ccc1Cn1ncc2nc(N)nc(NCc3cc(C)on3)c21 [Compound 103, 1-[(2-methoxy-4-{[(oxan-4-yl)amino]methyl}phenyl)methyl]-N7-[(5-methyl-1,2-oxazol-3-yl)methyl]-1H-pyrazolo[4,3-d]pyrimidine-5,7-diamine]
12 | 5.9 | 46.6 | COc1cc(CNC2CCC2)ccc1Cn1ncc2nc(N)nc(NCc3noc(C)n3)c21 [Compound 107, 1-({4-[(cyclobutylamino)methyl]-2-methoxyphenyl}methyl)-N7-[(5-methyl-1,2,4-oxadiazol-3-yl)methyl]-1H-pyrazolo[4,3-d]pyrimidine-5,7-diamine]
13 | 119 | 342 | COc1cc(CNC2CCOCC2)ccc1Cn1ncc2nc(N)nc(N[C@H](CO)CC3CC3)c21 [Compound 108, (2S)-2-({5-amino-1-[(2-methoxy-4-{[(oxan-4-yl)amino]methyl}phenyl)methyl]-1H-pyrazolo[4,3-d]pyrimidin-7-yl}amino)-3-cyclopropylpropan-1-ol]
14 | 75.4 | 338 | COc1cc(CNC2CCOCC2)ccc1Cn1ncc2nc(N)nc(NCC[C@H](O)C3CC3)c21 [Compound 109A, (1S)-3-({5-amino-1-[(2-methoxy-4-{[(oxan-4-yl)amino]methyl}phenyl)methyl]-1H-pyrazolo[4,3-d]pyrimidin-7-yl}amino)-1-cyclopropylpropan-1-ol]
15 | 163 | 1330 | COc1cc(CNC2CCOCC2)ccc1Cn1ncc2nc(N)nc(NCC[C@@H](O)C3CC3)c21 [Compound 109b, (1R)-3-({5-amino-1-[(2-methoxy-4-{[(oxan-4-yl)amino]methyl}phenyl)methyl]-1H-pyrazolo[4,3-d]pyrimidin-7-yl}amino)-1-cyclopropylpropan-1-ol]
16 | 10.3 | 95.9 | COc1cc(CNC2CCOCC2)ccc1Cn1nc(C)c2nc(N)nc(NCc3cc(C)on3)c21 [Compound 112, 1-[(2-methoxy-4-{[(oxan-4-yl)amino]methyl}phenyl)methyl]-3-methyl-N7-[(5-methyl-1,2-oxazol-3-yl)methyl]-1H-pyrazolo[4,3-d]pyrimidine-5,7-diamine]
17 |  | 1110 | COc1cc(CNC2CCOCC2)ccc1Cn1nc(C)c2nc(N)nc(NCc3noc(C)n3)c21 [Compound 133, 1-[(2-methoxy-4-{[(oxan-4-yl)amino]methyl}phenyl)methyl]-3-methyl-N7-[(5-methyl-1,2,4-oxadiazol-3-yl)methyl]-1H-pyrazolo[4,3-d]pyrimidine-5,7-diamine]
